Test system: male NMRI mice
Test: not given
Conditions: mouse, in vivo

Q: Which “reduction in the pain in the models of the centrally mediated types of pain” value does the source give for “2-(3,4-dichlorophenyl)-1-{(4aRS,8SR,8aSR)-8-[(3SR)-3-hydroxypyrrolidin-1-yl]perhydroquinoxalin-1-yl}ethan-1-one and 2-(3,4-dichlorophenyl)-1-{(4aRS,8SR,8aSR)-8-[(3RS)-3-hydroxypyrrolidin-1-yl]perhydroquinoxalin-1-yl}ethan-1-one [Example 2]” here?
A: no significant reduction in the pain

Target: T1, κ receptor (Cavia porcellus, UniProt P41144)
T1 construct: sucrose solution (0.32 M) was added to five guinea pig brains and the mixture was homogenized; from tissue; host or cells: whole guinea pig brain membrane homogenate
Test: biochemical
Type: binding, guinea pig
Conditions: not given

T1 sequence (P41144 whole entry): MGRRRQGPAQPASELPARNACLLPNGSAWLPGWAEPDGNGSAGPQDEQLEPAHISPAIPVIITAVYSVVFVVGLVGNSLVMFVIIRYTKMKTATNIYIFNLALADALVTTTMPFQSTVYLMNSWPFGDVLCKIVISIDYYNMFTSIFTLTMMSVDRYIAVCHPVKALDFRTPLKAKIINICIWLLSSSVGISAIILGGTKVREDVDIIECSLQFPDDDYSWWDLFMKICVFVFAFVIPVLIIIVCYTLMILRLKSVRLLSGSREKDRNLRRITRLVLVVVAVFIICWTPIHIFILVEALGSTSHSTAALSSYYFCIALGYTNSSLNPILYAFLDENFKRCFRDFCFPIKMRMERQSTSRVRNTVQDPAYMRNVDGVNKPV

Q: How did the Ki turn out when COc1ccc(CN2CCN(C(=O)Cc3ccc(Cl)c(Cl)c3)[C@H]3[C@H]2CCC[C@@H]3N2CCCC2)cc1 (racemic) [Example 20, 2-(3,4-dichlorophenyl)-1-[(4aRS,8SR,8aRS)-4-(4-methoxybenzyl)-8-(pyrrolidin-1-yl)-perhydroquinoxalin-1-yl]ethan-1-one] was run?
A: 6.8 ± 2 nM

Q: With O=C(Cc1ccc(Cl)c(Cl)c1)N1CCN(Cc2ccccn2)[C@@H]2CCC[C@H](N3CCCC3)[C@H]21 (racemic) [Example 21, 2-(3,4-dichlorophenyl)-1-{(4aRS,8SR,8aRS)-4-[(pyridin-2-yl)methyl]-8-(pyrrolidin-1-yl)perhydroquinoxalin-1-yl}ethan-1-one] as the compound, how does the Ki read?
A: 4.2 ± 2.6 nM

Q: With O=C(Cc1ccc(Cl)c(Cl)c1)N1CCN(Cc2cccnc2)[C@@H]2CCC[C@H](N3CCCC3)[C@H]21 (racemic) [Example 22, 2-(3,4-dichlorophenyl)-1-{(4aRS,8SR,8aRS)-4-[(pyridin-3-yl)methyl]-8-(pyrrolidin-1-yl)perhydroquinoxalin-1-yl}ethan-1-one] as the compound, how does the Ki read?
A: 0.13 ± 0.02 nM

Q: COC(=O)CC(=O)N1CCN(C(=O)Cc2ccc(Cl)c(Cl)c2)[C@H]2[C@H]1CCC[C@@H]2N1CCCC1 (racemic) [Example 13, methyl 3-{(4aRS,8SR,8aRS)-1-[2-(3,4-dichlorophenyl)acetyl]-8-(pyrrolidin-1-yl)-perhydroquinoxalin-4-yl}-3-oxopropionate] was tested. Which Ki did it give?
A: 11 ± 5.6 nM

Q: For CCCCN1CCN(C(=O)Cc2ccc(Cl)c(Cl)c2)[C@H]2[C@H]1CCC[C@@H]2N1CCCC1 (racemic) [Example 19, 1-[(4aRS,8SR,8aRS)-4-butyl-8-(pyrrolidin-1-yl)perhydroquinoxalin-1-yl]-2-(3,4-dichlorophenyl)-ethan-1-one], which Ki is on record?
A: 3.1 ± 1.8 nM

Same assay, conditions: read-out: κ: Ki ± SEM

Q: How did the Ki turn out when COC(=O)CC(=O)N1CCN(C(=O)Cc2ccc(Cl)c(Cl)c2)C2C(N3CCC(O)C3)CCCC21 (stereo not drawn) [Example 17, methyl 3-{(4aRS,8SR,8aRS)-1-[2-(3,4-dichlorophenyl)acetyl]-8-[(3SR)- and (3RS)-3-hydroxypyrrolidin-1-yl]-perhydroquinoxalin-4-yl}-3-oxopropionate] was run?
A: 18 ± 2.2 nM

Q: How did the Ki turn out when COC(=O)N1CCN(C(=O)Cc2ccc(Cl)c(Cl)c2)C2C(N3CCC(O)C3)CCCC21 (stereo not drawn) [Example 15, methyl{(4aRS,8SR,8aRS)-1-[2-(3,4-dichlorophenyl)acetyl]-8-[(3SR)- and (3RS)-3-hydroxypyrrolidin-1-yl]-perhydroquinoxalin-4-yl}carboxylate] was run?
A: 11 ± 2.8 nM

Q: O=C(c1ccccc1)N1CCN(C(=O)Cc2ccc(Cl)c(Cl)c2)C2C(N3CCC(O)C3)CCCC21 (stereo not drawn) [Example 14, 1-{(4aRS,8SR,8aSR)-4-benzoyl-8-[(3SR)- and (3RS)-3-hydroxypyrrolidin-1-yl]-perhydroquinoxalin-1-yl}-2-(3,4-dichlorophenyl)ethan-1-one] was tested. Which Ki did it give?
A: 22 ± 5.6 nM

Q: With O=C(Cc1ccc(Cl)c(Cl)c1)N1CCN(Cc2cccnc2)C2CCCC(N3CCC(O)C3)C21 (stereo not drawn) [Example 25, 2-(3,4-dichlorophenyl)-1-{(4aRS,8SR,8aSR)-4-[(pyridin-3-yl)methyl]-8-[(3SR)- and (3RS)-3-hydroxypyrrolidin-1-yl]perhydroquinoxalin-1-yl}ethan-1-one] as the compound, how does the Ki read?
A: 3.8 ± 0.7 nM

Q: Which Ki does the source give for O=C(O)CC(=O)N1CCN(C(=O)Cc2ccc(Cl)c(Cl)c2)C2C(N3CCC(O)C3)CCCC21 (stereo not drawn) [Example 16, 3-{(4aRS,8SR,8aRS)-1-[2-(3,4-dichlorophenyl)acetyl]-8-[(3SR)- and (3RS)-3-hydroxypyrrolidin-1-yl]-perhydroquinoxalin-4-yl}-3-oxopropionic acid] here?
A: 482 ± 113 nM

Q: With O=C(Cc1ccc(Cl)c(Cl)c1)N1CCN(Cc2ccccc2)C2CCCC(N3CCC(O)C3)C21 (stereo not drawn) [Example 5, 1-{(4aRS,8SR,8aSR)-4-benzyl-8-[(3SR)- and (3RS)-3-hydroxypyrrolidin-1-yl]perhydroquinoxalin-1-yl}-2-(3,4-dichlorophenyl)ethan-1-one] as the compound, how does the Ki read?
A: 6.6 ± 1.4 nM
